This is an account of results in patent US5536732A, “N-derivatives of 1-deoxy nojirimycin” (Merrell Pharmaceuticals Inc., priority 1990, dated 1996).

For assay [1], the system named is HIV-1GB8. Description: Inhibition of syncytia formation in JM cells infected with HIV-1GB8 (3 days incubation, 37° C.). It counts as cell-based. Also on record: unit not given here. Conditions: HIV-1GB8, 3 days at 37° C. An excerpt: (§1) Inhibition of the maturation of envelope glycoproteins gp 160 and gp 120 in human HIV by α-glucosidase I inhibitors result in reductions in infectivity and syncytial formation of the HIV virus. AIDS, Vol. 5(6): 693-698 (1991). Therefore, in order to test the antiviral activity of the compounds of the present invention, the following protocol was followed.
(§2) JM cells were infected with HIV-1GB8 for one hour at room temperature. The cells were then washed and subsequently grown in the presence of varying concentrations of test compound or no compound (control). […] The cell-free supernatant fluid was then titrated for levels of infectivity.
ED50 means 50% effective dose corresponds to the concentration of inhibitor required to lower the syncytia counts by 50%.

The test system of assay [2] is HIV-1GB8. Description: Infectivity titration of cell-free supernatant from HIV-1GB8 infected JM cells. It counts as cell-based.
Description: as §1, §2
Infectivity is expressed as log10 determined by the highest dilution of cell-free medium at which syncytia was detected. The results in Table 1 were found.

Where [3] appears, read: Human immunodeficiency virus 1, 72 h, Conc 0.06 mM, read-out: % Control.
[4] abbreviates: Human immunodeficiency virus 1, 72 h, Conc 0.125 mM, read-out: % Control.
The mark [5] stands for this setting: Conc 0.5 mM, control 10^3 (Example 44) or 10^4 (Example 43).
The mark [6] stands for this setting: Human immunodeficiency virus 1, 72 h, Conc 0.5 mM, read-out: % Control.

Turning to `C[Si](C)(C)CN1C[C@H](O)[C@@H](O)[C@H](O)[C@H]1CO` [Example 32, 1,5-dideoxy-1,5-{[(trimethylsilyl)methyl]imino}-D-glucitol], in assay [1], the “ED50 (concentration required to lower the syncytia counts by 50%)” value is 540.

For the compound `C[Si](C)(C)CCCCN1C[C@H](O)[C@@H](O)[C@H](O)[C@H]1CO` [Example 36, 1,5-dideoxy-1,5-{[4-(trimethylsilyl)butyl]imino}-D-glucitol], the “Infectivity (highest dilution of cell-free medium at which syncytia was detected)” value in assay [2] (Conc 0.06 mM, control 10^4) was 10^3; in assay [2] (Conc 0.125 mM, control 10^4), 10^3. The activity at 60 µM in assay [2] (setting [3]) was 73%. Further, the activity at 125 µM in assay [2] (setting [4]) was 37%.

In the case of `C[Si](C)(C)/C=C/CN1C[C@H](O)[C@@H](O)[C@H](O)[C@H]1CO` [Example 40, 1,5-dideoxy-1,5-{[(E)-3-(trimethylsilyl)-2-propenyl]imino}-D-glucitol], the “ED50 (concentration required to lower the syncytia counts by 50%)” value in assay [1] was 20. Also, the “Infectivity (highest dilution of cell-free medium at which syncytia was detected)” value is recorded as 10^3 in assay [2] (Conc 0.06 mM, control 10^4) and 10^2 in assay [2] (Conc 0.125 mM, control 10^4). Besides, the activity at 60 µM in assay [2] (setting [3]) came to 79%. Also, in assay [2] (setting [4]), the activity at 125 µM is 23%.

For the compound `C[Si](C)(C)c1cccc(CN2C[C@H](O)[C@@H](O)[C@H](O)[C@H]2CO)c1` [Example 43, 1,5-Dideoxy-1,5-[{[3-(Trimethylsilyl)Phenyl]Methyl}Imino]-D-Glucitol], the “ED50 (concentration required to lower the syncytia counts by 50%)” value in assay [1] was > 250. Also, the “Infectivity (highest dilution of cell-free medium at which syncytia was detected)” value is on record as 10^4 in assay [2] (Conc 0.25 mM, control 10^4) and 10^4 in assay [2] (setting [5]). For the same compound, in assay [2] (Human immunodeficiency virus 1, 72 h, Conc 0.25 mM, read-out: % Control), the activity at 250 µM was determined as 100%. Also, the activity at 500 µM in assay [2] (setting [6]) is 100%.

On to `C[Si](C)(C)CCCN1C[C@H](O)[C@@H](O)[C@H](O)[C@H]1CO` [Example 44, 1,5-Dideoxy-1,5-{[3-(trimethylsilyl)propyl]imino}-D-glucitol], for which the “Infectivity (highest dilution of cell-free medium at which syncytia was detected)” value in assay [2] (setting [5]) was 10^1. In assay [2] (setting [6]), the activity at 500 µM was found to be 0%.

As for `C[Si](C)(C)c1ccc(CN2C[C@H](O)[C@@H](O)[C@H](O)[C@H]2CO)cc1` [Example 46, 1,5-dideoxy-1,5-[{[4-(trimethylsilyl)phenyl]methyl}imino]-D-glucitol], the “ED50 (concentration required to lower the syncytia counts by 50%)” value in assay [1] turned out to be 10. Besides, the “Infectivity (highest dilution of cell-free medium at which syncytia was detected)” value in assay [2] (Conc 0.06 mM, control 10^4) is recorded as 10^3; in assay [2] (Conc 0.125 mM, control 10^4), 10^2. In addition, the activity at 60 µM in assay [2] (setting [3]) was 55%. In addition, the activity at 125 µM in assay [2] (setting [4]) came to 28%.

With `C[Si](C)(C)CCCCCN1C[C@H](O)[C@@H](O)[C@H](O)[C@H]1CO` [Example 49, 1,5-dideoxy-1,5-{[5-(trimethylsilyl)pentyl]imino}-D-glucitol], the “Infectivity (highest dilution of cell-free medium at which syncytia was detected)” value in assay [2] (Conc 0.006 mM, control 10^3) is given as 10^2; in assay [2] (Conc 0.012 mM, control 10^3), 10^1. The activity at 6 µM in assay [2] (Human immunodeficiency virus 1, 72 h, Conc 0.006 mM, read-out: % Control) is 63%. Besides, in assay [2] (Human immunodeficiency virus 1, 72 h, Conc 0.012 mM, read-out: % Control), the activity at 12 µM came out at 24%.

On to `C[Si](C)(C)CCCCCCN1C[C@H](O)[C@@H](O)[C@H](O)[C@H]1CO` [Example 52, 1,5-Dideoxy-1,5-{[6-(Trimethylsilyl)Hexyl]Imino}-D-Glucitol], for which the “ED50 (concentration required to lower the syncytia counts by 50%)” value in assay [1] amounted to 33.

Regarding `C[Si](C)(CCCCN1C[C@H](O)[C@@H](O)[C@H](O)[C@H]1CO)c1ccccc1` [Example 53, 1,5-dideoxy-1,5-{[4-(dimethylphenylsilyl)butyl]imino}-D-glucitol], the “ED50 (concentration required to lower the syncytia counts by 50%)” value in assay [1] is listed as 12.

Regarding `C[Si](C)(C)/C=C\CN1C[C@H](O)[C@@H](O)[C@H](O)[C@H]1CO` [Example 54, 1,5-dideoxy-1,5-{[(Z)-3-(trimethylsilyl)-2-propenyl]imino}-D-glucitol], the “ED50 (concentration required to lower the syncytia counts by 50%)” value in assay [1] came to 310.

For `CC(C)(C)[Si](C)(C)/C=C/CN1C[C@H](O)[C@@H](O)[C@H](O)[C@H]1CO` [Example 55, 1,5-Dideoxy-1,5-{[(E)-3-(t-butyldimethylsilyl)-2-propenyl]imino}-D-glucitol], the “ED50 (concentration required to lower the syncytia counts by 50%)” value in assay [1] was 45.

Turning to `CC(C)(C)[Si](C)(C)/C=C\CN1C[C@H](O)[C@@H](O)[C@H](O)[C@H]1CO` [Example 59, 1,5-Dideoxy-1,5-{[(Z)-3-(t-butyldimethylsilyl)-2-propenyl]-imino-}-D-glucitol], in assay [1], the “ED50 (concentration required to lower the syncytia counts by 50%)” value came out at 190.

Turning to `CC[Si](C)(C)CN1C[C@H](O)[C@@H](O)[C@H](O)[C@H]1CO` [Example 60, 1,5-Dideoxy-1,5-{[(Ethyldimethylsilyl)-Methyl]Imino}-D-Glucitol], in assay [1], the “ED50 (concentration required to lower the syncytia counts by 50%)” value turned out to be 18.
